PMC9739780, “Pharmacokinetic Comparison of Eight Major Compounds of Lonicerae japonicae flos after Oral Administration in Normal Rats and Rats with Liver Injury” (Molecules, 2022)

What was measured:
[1] = Pharmacokinetics after oral administration of LJF extract in normal rats; assay type: in vivo, Sprague-Dawley rats
Method: (§1) This method has been successfully applied to study the pharmacokinetics of LJF orally in normal rats and acute liver injury rats. The pharmacokinetic parameters were analyzed using the […] model analysis on the DAS 2.0 platform. The mean plasma concentration–time curves of 3-CQA, 4-CQA, 5-CQA, 3,5-diCQA, 4,5-diCQA, PA, Secoxyloganin, and Sweroside are shown in Figure 4. Pharmacokinetic parameters included: Cmax, Tmax, area under the concentration–time curve (AUC0–t), AUC0–∞, MRT0–t, and MRT0–∞, as shown in Table 6 and Figure 4.
(§2) […] male Sprague-Dawley rats with body weights of 250 ± 20 g were purchased from the Experimental Animal Center of Heilongjiang University of Chinese Medicine and fed in the SPF animal laboratory, under a standard room temperature of 25 ± 2 °C, relative humidity of 50 ± 15%, and a 12 h light/12 h dark cycle. The experiment followed the ethical norms of experimental animals of Heilongjiang University of Chinese Medicine (License number: SCXK (Hei) 2021-004). Twelve rats were randomly divided into normal and model groups of six rats each. After intraperitoneal injection of CCl4 (0.06 mL/kg) for 24 h, blood samples were collected into heparinized tubes via the orbital vein, centrifuged at 2000 r/min for 20 min, and the levels of AST and ALT in serum were determined by the microplate method.
(§3) The pharmacokinetic properties and parameters of 3-CQA, 4-CQA, 5-CQA, 3,5-diCQA, 4,5-diCQA, PA, Secoxyloganin, and Sweroside in rats were studied after oral administration of the LJF extract. […] The supernatant plasma was then transferred to a 1.5 mL centrifuge tube and stored at −20 °C for later use.
(§4) Here, 100 μL aliquots of the plasma sample were thawed and pipetted into centrifuge tubes and 10 μL of chloramphenicol solution (500 ng/mL) and daidzein solution (500 ng/mL) were added, respectively, and 780 μL of methanol was added to precipitate for 5 min. Then, the supernatant was centrifuged for 5 min at 12,000 rp/min. The supernatant was transferred to a nitrogen blowing machine and dried at 40 °C. The residue was reconstituted in 100 μL of 50% methanol, and the sample was filtered through the membrane and then injected into the UPLC-MS/MS system.
(§5) DAS 2.0 software was used to calculate the pharmacokinetic parameters of the […] model, including Cmax, Tmax, AUC0–t, AUC0–∞, MRT0–t, MRT0–∞, and t1/2. The statistical software GraphPad Prism 5.0 was used for graph plotting and statistical analysis of drug duration curves.

[2] = Pharmacokinetics after oral administration of LJF extract in CCl4-induced liver injury model rats; assay type: in vivo, Sprague-Dawley rats; settings: for AUC(0-t) / AUC(0-inf) / Cmax / MRT inf / half-life / MRT last / Tmax: male, Sprague-Dawley
Method: Intraperitoneal injection of CCl4 was used to induce liver injury in rats, and the successful establishment of the model was measured by detecting ALT and AST in rat plasma.
as §1, §2, §3, §4, §5

[3] = male, Sprague-Dawley, rat, normal group (N), oral LJF ethanol extract 15.75 g/kg, plasma, mean ± SD, n = 6, read-out: Cmax
[4] = male, Sprague-Dawley, rat, normal group (N), oral LJF ethanol extract 15.75 g/kg, plasma, mean ± SD, n = 6, read-out: MRT0–t
[5] = male, Sprague-Dawley, rat, normal group (N), oral LJF ethanol extract 15.75 g/kg, plasma, mean ± SD, n = 6, read-out: MRT0–∞
[6] = male, Sprague-Dawley, rat, normal group (N), oral LJF ethanol extract 15.75 g/kg, plasma, mean ± SD, n = 6, read-out: t1/2 (converted)
[7] = rat, liver injury model group (M, CCl4), oral LJF ethanol extract 15.75 g/kg, plasma, mean ± SD, n = 6, read-out: AUC0–t
[8] = rat, liver injury model group (M, CCl4), oral LJF ethanol extract 15.75 g/kg, plasma, mean ± SD, n = 6, read-out: AUC0–∞
[9] = rat, liver injury model group (M, CCl4), oral LJF ethanol extract 15.75 g/kg, plasma, mean ± SD, n = 6, read-out: Cmax
[10] = rat, liver injury model group (M, CCl4), oral LJF ethanol extract 15.75 g/kg, plasma, mean ± SD, n = 6, read-out: MRT0–∞
[11] = rat, liver injury model group (M, CCl4), oral LJF ethanol extract 15.75 g/kg, plasma, mean ± SD, n = 6, read-out: t1/2 (converted)
[12] = result in words, oral LJF extract, rat plasma
[13] = male, Sprague-Dawley, rat, in vivo, po, 15.75 g/kg
[14] = male, Sprague-Dawley, rat, normal group (N), oral LJF ethanol extract 15.75 g/kg, plasma, mean ± SD, n = 6, read-out: AUC0–t
[15] = male, Sprague-Dawley, rat, normal group (N), oral LJF ethanol extract 15.75 g/kg, plasma, mean ± SD, n = 6, read-out: AUC0–∞
[16] = male, Sprague-Dawley, rat, normal group (N), oral LJF ethanol extract 15.75 g/kg, plasma, mean ± SD, n = 6, read-out: Tmax
[17] = rat, liver injury model group (M, CCl4), oral LJF ethanol extract 15.75 g/kg, plasma, mean ± SD, n = 6, read-out: MRT0–t
[18] = rat, liver injury model group (M, CCl4), oral LJF ethanol extract 15.75 g/kg, plasma, mean ± SD, n = 6, read-out: Tmax

Cmax [1, 3] [ng/mL]	MRT last [1, 4] [h]	MRT inf [1, 5] [h]	half-life [1, 6] [h]	AUC(0-t) [1, 14] [ng·h/mL]	AUC(0-inf) [1, 15] [ng·h/mL]	Tmax [1, 16] [h]	SMILES	AUC(0-t) [2, 7] [ng·h/mL]	AUC(0-inf) [2, 8] [ng·h/mL]	Cmax [2, 9] [ng/mL]	MRT inf [2, 10] [h]	half-life [2, 11] [h]	AUC0–t, model group compared with the normal group [2, 12]	AUC0–∞, model group compared with the normal group [2, 12]	Cmax, model group compared with the normal group [2, 12]	Tmax, model group compared with the normal group [2, 12]	AUC(0-inf) [1, 13] [ng·h/mL]	AUC(0-t) [1, 13] [ng·h/mL]	MRT last [2, 17] [h]	Tmax [2, 18] [h]	also measured
22.6 ± 8.36	23.2 ± 0.86	44.1 ± 16.9	24.8 ± 12.8	198 ± 37	292 ± 26	0.33 ± 0.13	O=C(O)c1ccc(O)c(O)c1 [PA, protocatechuic acid]	219 ± 59.1	547 ± 209	23 ± 2.97	49.8 ± 28.9	25.5 ± 17		increased		reached the peak earlier			26.6 ± 2.13	0.18 ± 0.034	clearance rate, model group compared with the normal group ([2]; result in words, oral LJF extract): decreased; MRT0–t, model group compared with the normal group [2, 12]: prolonged
5110 ± 1220	13.9 ± 1.31	18.2 ± 1.94	12.9 ± 0.765	12100	13100	0.208 ± 0.0457	O=C(/C=C/c1ccc(O)c(O)c1)O[C@H]1C[C@](O)(C(=O)O)C[C@@H](O)[C@H]1O [3-CQA, 3-caffeoylquinic acid]	16400	17400	6290 ± 1260	23.3 ± 11.2	12.2 ± 3.12	significantly increased	significantly increased	increased but there was no significant difference				13.4 ± 1.67	0.19 ± 0.043	

The next lines start with the compound.

SMILES	Cmax [1, 3] [ng/mL]	MRT last [1, 4] [h]	MRT inf [1, 5] [h]	half-life [1, 6] [h]	AUC(0-t) [1, 14] [ng·h/mL]	AUC(0-inf) [1, 15] [ng·h/mL]	Tmax [1, 16] [h]	AUC(0-t) [2, 7] [ng·h/mL]	AUC(0-inf) [2, 8] [ng·h/mL]	Cmax [2, 9] [ng/mL]	MRT inf [2, 10] [h]	half-life [2, 11] [h]	AUC0–t, model group compared with the normal group [2, 12]	AUC0–∞, model group compared with the normal group [2, 12]	Cmax, model group compared with the normal group [2, 12]	Tmax, model group compared with the normal group [2, 12]	AUC(0-inf) [1, 13] [ng·h/mL]	AUC(0-t) [1, 13] [ng·h/mL]	MRT last [2, 17] [h]	Tmax [2, 18] [h]	also measured
O=C(/C=C/c1ccc(O)c(O)c1)O[C@@H]1C[C@](O)(C(=O)O)C[C@@H](O)[C@H]1O [5-CQA, 5-caffeoylquinic acid]	266 ± 102	18 ± 2.34	21.4 ± 2.86	17.9 ± 9.97				3570 ± 686	3970 ± 712	1120 ± 316	20.9 ± 8.54	18.9 ± 18.4	increased	increased	increased	not significantly different					Tmax ([1]; normal group (N), oral LJF ethanol extract 15.75 g/kg, plasma, mean ± SD, n = 6): 0.24 ± 0.03405 h; MRT0–t ([2]; liver injury model group (M, CCl4), oral LJF ethanol extract 15.75 g/kg, plasma, mean ± SD, n = 6): 11.08 ± 2.42 h
C=C[C@H]1[C@H](O[C@@H]2O[C@H](CO)[C@@H](O)[C@H](O)[C@H]2O)OC=C(C(=O)OC)[C@H]1CC(=O)O [Secoxyloganin]																	7610 ± 4120	6230 ± 1070			Cmax [1, 13]: 1510 ± 331 ng/mL; MRT inf [1, 13]: 12.4 ± 1.04 h; MRT last [1, 13]: 11.9 ± 1.69 h; Tmax [1, 13]: 0.46 ± 0.102 h; half-life [1, 13]: 16.1 ± 19.1 h; AUC(0-inf) ([2]; rat, in vivo, po, 15.75 g/kg): 17100 ng·h/mL; AUC(0-t) ([2]; rat, in vivo, po, 15.75 g/kg): 15000 ng·h/mL; Cmax ([2]; rat, in vivo, po, 15.75 g/kg): 4150 ± 377 ng/mL; MRT inf ([2]; rat, in vivo, po, 15.75 g/kg): 18.2 ± 2.24 h; MRT last ([2]; rat, in vivo, po, 15.75 g/kg): 8.74 ± 0.58 h; Tmax ([2]; rat, in vivo, po, 15.75 g/kg): 0.29 ± 0.102 h; half-life ([2]; rat, in vivo, po, 15.75 g/kg): 23.6 ± 3.48 h; Cmax, model group compared with the normal group ([2]; rat, in vivo, po): significantly higher; MRT0–∞, model group compared with the normal group ([2]; rat, in vivo, po): significantly higher; Tmax, model group compared with the normal group ([2]; rat, in vivo, po): significantly lower
O=C(/C=C/c1ccc(O)c(O)c1)O[C@@H]1[C@H](O)C[C@@](O)(C(=O)O)C[C@@H]1O (stereo in doubt) [4-CQA, 4-caffeoylquinic acid]	1110 ± 448	9.65 ± 1.72	14.7 ± 4.18	15.2 ± 5.24	2170 ± 616	2340 ± 569	0.208 ± 0.0457	5970 ± 1800	6810 ± 1140	2370 ± 425	29.7 ± 24.8	42.2 ± 31.7	increased	increased	increased	significantly decreased			10.1 ± 1.06	0.14 ± 0.043	
C=C[C@H]1[C@H](O[C@@H]2O[C@H](CO)[C@@H](O)[C@H](O)[C@H]2O)OC=C2C(=O)OCC[C@H]21 [Sweroside]																	10000	9690 ± 1410			Cmax [1, 13]: 1930 ± 609 ng/mL; MRT0–t [1, 13]: 12.29 ± 1.14 h; MRT inf [1, 13]: 13.9 ± 1.86 h; Tmax [1, 13]: 0.53 ± 0.38 h; half-life [1, 13]: 9.78 ± 2.87 h; AUC(0-inf) ([2]; rat, in vivo, po, 15.75 g/kg): 16700 ng·h/mL; AUC(0-t) ([2]; rat, in vivo, po, 15.75 g/kg): 16000 ng·h/mL; Cmax ([2]; rat, in vivo, po, 15.75 g/kg): 2364.23 ± 440 ng/mL; MRT inf ([2]; rat, in vivo, po, 15.75 g/kg): 13.7 ± 1.33 h; MRT last ([2]; rat, in vivo, po, 15.75 g/kg): 11.3 ± 0.48 h; Tmax ([2]; rat, in vivo, po, 15.75 g/kg): 0.67 ± 0.26 h; half-life ([2]; rat, in vivo, po, 15.75 g/kg): 11.8 ± 1.51 h; AUC0–∞, model group compared with the normal group ([2]; rat, in vivo, po): significantly higher; Cmax, model group compared with the normal group ([2]; rat, in vivo, po): increased compared with that in the normal group, but there was no significant difference
